Values after ≈ are worked out from the molar mass of the structure shown.
Experiments:
Alcaligenes Faecolis A1 = experiment: MIC by agar dilution method; assay type: cell-based; conditions: Alcaligenes Faecolis A1; agar dilution, 37° C., 18 hours; read-out: MIC
Method in brief: (§1)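 Agar dilution per the Japanese Society of Chemotherapy standard: twofold antibiotic dilutions in 1/50 M phosphate buffer, pH 7.3, were set in Heart Infusion Agar. Strains grown 18 h at 37 °C in trypto-soy broth, diluted to about 10^6 cells/ml in saline, and spotted by microplanter.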

[1] = tested on: Bacillus subtillis ATCC 6633; experiment: MIC by agar dilution method; assay type: cell-based; conditions: Bacillus, ATCC6633, 18 h
Method in brief: as §1

[2] = tested on: Citrobacter Freundii GN346; experiment: MIC by agar dilution method; assay type: cell-based; conditions: 37° C., 18 hours
Method in brief: as §1

Comamonas terrigena B996 = experiment: MIC by agar dilution method; assay type: cell-based; conditions: 37° C., 18 hours
Method in brief: as §1

E. coli RGN823 = experiment: MIC by agar dilution method; assay type: cell-based; conditions: Escherichia coli, 37° C., 18 hours
Method in brief: as §1

Ent. cloacae 45 = experiment: MIC by agar dilution method; assay type: cell-based; conditions: Enterobacter cloacae, 37° C., 18 hours
Method in brief: as §1

Ent. sp. E8 = experiment: MIC by agar dilution method; assay type: cell-based; conditions: Ent. sp. E8; agar dilution, 37° C., 18 hours; read-out: MIC
Method in brief: as §1

[3] = tested on: Enterobacter aerogenes E19; experiment: MIC by agar dilution method; assay type: cell-based; conditions: Klebsiella aerogenes, 37° C., 18 hours
Method in brief: as §1

Escherichia coli K-12 = experiment: MIC by agar dilution method; assay type: cell-based; conditions: K12; Escherichia coli K-12; agar dilution, 37° C., 18 hours; read-out: MIC
Method in brief: as §1

[4] = tested on: Klebsiella pneumoniae K13; experiment: MIC by agar dilution method; assay type: cell-based; conditions: 37° C., 18 hours
Method in brief: as §1

P. rettgeri P7 = experiment: MIC by agar dilution method; assay type: cell-based; conditions: Providencia rettgeri; P. rettgeri P7; agar dilution, 37° C., 18 hours; read-out: MIC
Method in brief: as §1

P. vulgaris GN76 = experiment: MIC by agar dilution method; assay type: cell-based; conditions: Proteus vulgaris, 37° C., 18 hours
Method in brief: as §1

Proteus mirabilis P6 = experiment: MIC by agar dilution method; assay type: cell-based; conditions: Proteus mirabilis P6; agar dilution, 37° C., 18 hours; read-out: MIC
Method in brief: as §1

Providencia sp. P8 = experiment: MIC by agar dilution method; assay type: cell-based; conditions: Providencia sp. P8; agar dilution, 37° C., 18 hours; read-out: MIC
Method in brief: as §1

Ps. aeruginosa NCTC10490 = experiment: MIC by agar dilution method; assay type: cell-based; conditions: Pseudomonas aeruginosa, 37° C., 18 hours
Method in brief: as §1

[5] = tested on: Pseudomonas aenginosa IFO3445; experiment: MIC by agar dilution method; assay type: cell-based; conditions: 37° C., 18 hours
Method in brief: as §1

S. aureus Russell = experiment: MIC by agar dilution method; assay type: cell-based; conditions: Staphylococcus aureus; S. aureus Russell; agar dilution, 37° C., 18 hours; read-out: MIC
Method in brief: as §1

S. aureus Smith = experiment: MIC by agar dilution method; assay type: cell-based; conditions: Staphylococcus aureus, 37° C., 18 hours
Method in brief: as §1

S. epidermidis = experiment: MIC by agar dilution method; assay type: cell-based; conditions: Staphylococcus epidermidis, 37° C., 18 hours
Method in brief: as §1

Sarcina lutea S19 = experiment: MIC by agar dilution method; assay type: cell-based; conditions: Micrococcus luteus, 37° C., 18 hours
Method in brief: as §1

Ser. marcesceus T55 = experiment: MIC by agar dilution method; assay type: cell-based; conditions: 37° C., 18 hours
Method in brief: as §1

Serratia marcesceus S18 = experiment: MIC by agar dilution method; assay type: cell-based; conditions: 37° C., 18 hours
Method in brief: as §1

[6] = tested on: Staphylococcus aureus 209P; experiment: MIC by agar dilution method; assay type: cell-based; conditions: 37° C., 18 hours
Method in brief: as §1

[7] = tested on: Citrobacter Freundii GN346; experiment: Synergistic effect on MIC, microdilution transfer plate technique; assay type: cell-based
Proteus vulgaris GN76 = experiment: as above; assay type: cell-based
ddY mice = conditions: mouse, in vivo, ip, 500 mg/kg
[8] = Stability (half life) in phosphate buffers of various pH; assay type: physicochemical; conditions: 28° C.
Description: By adding 2% sodium hydroxide or 10% hydrochloric acid, the pH of 0.05 M phosphate buffer is adjusted to 4, 5, 6, 7, 8 and 9, respectively, and distributed into test tubes in an amount of 3 ml. Concentrated solution of antibiotic OA-6129A (0.05 ml) is added to each test tube and allowed to stand in a thermostatic chamber of 28° C. The time course curve of the concentration decrease of antibiotic OA-6129A is drawn by spectrophotometric measurement at 300 nm, from which the half life of the antibiotic at the indicated pH is calculated. As a control, antibiotic PS-5, a carbapenem compound described in the above-cited reference is simultaneously tested.

[9] = Physicochemical properties; conditions: pale yellow powder
[10] = OA-6129A 25 combined with CER <5

## CC[C@H]1C(=O)N2C(C(=O)O)=C(SCCNC(=O)CCNC(=O)C(O)C(C)(C)CO)C[C@H]12 (relative stereo) [OA-6129A]
Alcaligenes Faecolis A1
  MIC: 1.56 µg/mL (≈ 3.41 µM)
[1]
  MIC: 0.39 µg/mL (≈ 0.852 µM)
[2]
  MIC: 50 µg/mL (≈ 109 µM)
Comamonas terrigena B996
  MIC: 0.05 µg/mL (≈ 0.109 µM)
E. coli RGN823
  MIC: 12.5 µg/mL (≈ 27.3 µM)
Ent. cloacae 45
  MIC: 50 µg/mL (≈ 109 µM)
Ent. sp. E8
  MIC: 12.5 µg/mL (≈ 27.3 µM)
[3]
  MIC: 25 µg/mL (≈ 54.6 µM)
Escherichia coli K-12
  MIC: 12.5 µg/mL (≈ 27.3 µM)
[4]
  MIC: 50 µg/mL (≈ 109 µM)
P. rettgeri P7
  MIC: 25 µg/mL (≈ 54.6 µM)
P. vulgaris GN76
  MIC: 100 µg/mL (≈ 219 µM)
Proteus mirabilis P6
  MIC: 50 µg/mL (≈ 109 µM)
Providencia sp. P8
  MIC: 12.5 µg/mL (≈ 27.3 µM)
Ps. aeruginosa NCTC10490
  MIC: > 100 µg/mL
[5]
  MIC: > 100 µg/mL
S. aureus Russell
  MIC: 0.78 µg/mL (≈ 1.7 µM)
S. aureus Smith
  MIC: 1.56 µg/mL (≈ 3.41 µM)
S. epidermidis
  MIC: 1.56 µg/mL (≈ 3.41 µM)
Sarcina lutea S19
  MIC: 0.78 µg/mL (≈ 1.7 µM)
Ser. marcesceus T55
  MIC: 100 µg/mL (≈ 219 µM)
Serratia marcesceus S18
  MIC: 100 µg/mL (≈ 219 µM)
[6]
  MIC: 0.78 µg/mL (≈ 1.7 µM)
[7]; Citrobacter freundii, GN346, alone, heart infusion broth, 10^5 cells/ml
  MIC: 50 µg/mL
[7]; OA-6129A 1.56 combined with ABPC […]
  FIC index: 1.03
[7]; OA-6129A 1.56 combined with CER 1250
  FIC index: 1.03
[7]; OA-6129A 3.13 combined with ABPC 625
  FIC index: 0.63
[7]; OA-6129A 3.13 combined with CER 625
  FIC index: 0.63
[7]; OA-6129A 6.25 combined with ABPC […]
  FIC index: 0.38
[7]; OA-6129A 6.25 combined with CER 313
  FIC index: 0.38
[7]; OA-6129A 12.5 combined with ABPC […]
  FIC index: 0.50
[7]; OA-6129A 12.5 combined with CER 313
  FIC index: 0.50
[7]; OA-6129A 25 combined with ABPC <5
  FIC index: 0.50
[7]; [10]
  FIC index: 0.50
Proteus vulgaris GN76; OA-6129A 1.56 combined with ABPC (printed 3.3)
  FIC index: 0.28
Proteus vulgaris GN76; OA-6129A 1.56 combined with CER 313
  FIC index: 0.28
Proteus vulgaris GN76; OA-6129A 3.13 combined with ABPC 156
  FIC index: 0.19
Proteus vulgaris GN76; OA-6129A 3.13 combined with CER 156
  FIC index: 0.19
Proteus vulgaris GN76; OA-6129A 6.25 combined with ABPC 39
  FIC index: 0.16
Proteus vulgaris GN76; OA-6129A 6.25 combined with CER 39
  FIC index: 0.16
Proteus vulgaris GN76; OA-6129A 12.5 combined with ABPC 10
  FIC index: 0.26
Proteus vulgaris GN76; OA-6129A 12.5 combined with CER 20
  FIC index: 0.27
Proteus vulgaris GN76; OA-6129A 25 combined with ABPC 10
  FIC index: 0.51
Proteus vulgaris GN76; [10]
  FIC index: 0.50
Proteus vulgaris GN76; Proteus vulgaris, GN76, alone, heart infusion broth, 10^5 cells/ml
  MIC: 50 µg/mL
ddY mice
  acute toxicity: no acute toxicity is observed
[8]; pH 4, 0.05 M phosphate buffer
  half-life: 1.05 h
[8]; pH 5, 0.05 M phosphate buffer
  half-life: 4.07 h
[8]; pH 6, 0.05 M phosphate buffer
  half-life: 21.2 h
[8]; pH 7, 0.05 M phosphate buffer
  half-life: 57.7 h
[8]; pH 8, 0.05 M phosphate buffer
  half-life: 128 h
[8]; pH 9, 0.05 M phosphate buffer
  half-life: 132 h
[9]
  hygroscopicity: hygroscopic

Reference: patent US4426390A, “Novel β-lactam compounds, process for producing thereof, and use thereof as medicines” (Sanraku-Ocean Co., Ltd., priority 1980, dated 1984)
